{
  "source": "paper PMC12146746",
  "about": "(Proceedings of the National Academy of Sciences of the …, 2025)",
  "target": "ceDCR-1/DRH-1/RDE-4 (Caenorhabditis elegans, UniProt G5EDI8)",
  "sequence (G5EDI8 1-1037)": "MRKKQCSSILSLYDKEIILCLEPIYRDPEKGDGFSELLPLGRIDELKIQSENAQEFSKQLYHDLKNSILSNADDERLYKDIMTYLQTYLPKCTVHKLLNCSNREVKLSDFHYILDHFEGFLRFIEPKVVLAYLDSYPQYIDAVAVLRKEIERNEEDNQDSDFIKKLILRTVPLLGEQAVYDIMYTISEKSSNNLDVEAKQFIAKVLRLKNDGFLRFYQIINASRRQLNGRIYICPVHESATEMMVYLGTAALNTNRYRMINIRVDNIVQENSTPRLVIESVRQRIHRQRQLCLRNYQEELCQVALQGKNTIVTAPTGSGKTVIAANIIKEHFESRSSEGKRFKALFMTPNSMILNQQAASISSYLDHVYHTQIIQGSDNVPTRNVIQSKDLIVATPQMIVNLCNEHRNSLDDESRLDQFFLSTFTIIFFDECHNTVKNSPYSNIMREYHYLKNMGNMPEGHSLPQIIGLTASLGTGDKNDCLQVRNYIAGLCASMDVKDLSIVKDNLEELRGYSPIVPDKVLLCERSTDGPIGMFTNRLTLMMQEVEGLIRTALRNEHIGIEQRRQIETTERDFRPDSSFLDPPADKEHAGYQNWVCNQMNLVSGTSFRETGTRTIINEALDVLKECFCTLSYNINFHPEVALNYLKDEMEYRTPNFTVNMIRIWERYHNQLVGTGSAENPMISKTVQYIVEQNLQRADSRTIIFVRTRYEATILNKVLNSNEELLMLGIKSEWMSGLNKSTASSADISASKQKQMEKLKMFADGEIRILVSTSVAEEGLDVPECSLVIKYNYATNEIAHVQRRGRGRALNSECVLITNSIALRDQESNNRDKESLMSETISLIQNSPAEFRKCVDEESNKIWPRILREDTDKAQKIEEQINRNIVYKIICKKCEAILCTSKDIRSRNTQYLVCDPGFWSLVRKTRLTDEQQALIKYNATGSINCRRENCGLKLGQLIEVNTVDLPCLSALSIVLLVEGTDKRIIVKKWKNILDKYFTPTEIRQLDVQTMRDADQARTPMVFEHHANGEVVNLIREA",
  "sequence (P34529 whole entry partner)": "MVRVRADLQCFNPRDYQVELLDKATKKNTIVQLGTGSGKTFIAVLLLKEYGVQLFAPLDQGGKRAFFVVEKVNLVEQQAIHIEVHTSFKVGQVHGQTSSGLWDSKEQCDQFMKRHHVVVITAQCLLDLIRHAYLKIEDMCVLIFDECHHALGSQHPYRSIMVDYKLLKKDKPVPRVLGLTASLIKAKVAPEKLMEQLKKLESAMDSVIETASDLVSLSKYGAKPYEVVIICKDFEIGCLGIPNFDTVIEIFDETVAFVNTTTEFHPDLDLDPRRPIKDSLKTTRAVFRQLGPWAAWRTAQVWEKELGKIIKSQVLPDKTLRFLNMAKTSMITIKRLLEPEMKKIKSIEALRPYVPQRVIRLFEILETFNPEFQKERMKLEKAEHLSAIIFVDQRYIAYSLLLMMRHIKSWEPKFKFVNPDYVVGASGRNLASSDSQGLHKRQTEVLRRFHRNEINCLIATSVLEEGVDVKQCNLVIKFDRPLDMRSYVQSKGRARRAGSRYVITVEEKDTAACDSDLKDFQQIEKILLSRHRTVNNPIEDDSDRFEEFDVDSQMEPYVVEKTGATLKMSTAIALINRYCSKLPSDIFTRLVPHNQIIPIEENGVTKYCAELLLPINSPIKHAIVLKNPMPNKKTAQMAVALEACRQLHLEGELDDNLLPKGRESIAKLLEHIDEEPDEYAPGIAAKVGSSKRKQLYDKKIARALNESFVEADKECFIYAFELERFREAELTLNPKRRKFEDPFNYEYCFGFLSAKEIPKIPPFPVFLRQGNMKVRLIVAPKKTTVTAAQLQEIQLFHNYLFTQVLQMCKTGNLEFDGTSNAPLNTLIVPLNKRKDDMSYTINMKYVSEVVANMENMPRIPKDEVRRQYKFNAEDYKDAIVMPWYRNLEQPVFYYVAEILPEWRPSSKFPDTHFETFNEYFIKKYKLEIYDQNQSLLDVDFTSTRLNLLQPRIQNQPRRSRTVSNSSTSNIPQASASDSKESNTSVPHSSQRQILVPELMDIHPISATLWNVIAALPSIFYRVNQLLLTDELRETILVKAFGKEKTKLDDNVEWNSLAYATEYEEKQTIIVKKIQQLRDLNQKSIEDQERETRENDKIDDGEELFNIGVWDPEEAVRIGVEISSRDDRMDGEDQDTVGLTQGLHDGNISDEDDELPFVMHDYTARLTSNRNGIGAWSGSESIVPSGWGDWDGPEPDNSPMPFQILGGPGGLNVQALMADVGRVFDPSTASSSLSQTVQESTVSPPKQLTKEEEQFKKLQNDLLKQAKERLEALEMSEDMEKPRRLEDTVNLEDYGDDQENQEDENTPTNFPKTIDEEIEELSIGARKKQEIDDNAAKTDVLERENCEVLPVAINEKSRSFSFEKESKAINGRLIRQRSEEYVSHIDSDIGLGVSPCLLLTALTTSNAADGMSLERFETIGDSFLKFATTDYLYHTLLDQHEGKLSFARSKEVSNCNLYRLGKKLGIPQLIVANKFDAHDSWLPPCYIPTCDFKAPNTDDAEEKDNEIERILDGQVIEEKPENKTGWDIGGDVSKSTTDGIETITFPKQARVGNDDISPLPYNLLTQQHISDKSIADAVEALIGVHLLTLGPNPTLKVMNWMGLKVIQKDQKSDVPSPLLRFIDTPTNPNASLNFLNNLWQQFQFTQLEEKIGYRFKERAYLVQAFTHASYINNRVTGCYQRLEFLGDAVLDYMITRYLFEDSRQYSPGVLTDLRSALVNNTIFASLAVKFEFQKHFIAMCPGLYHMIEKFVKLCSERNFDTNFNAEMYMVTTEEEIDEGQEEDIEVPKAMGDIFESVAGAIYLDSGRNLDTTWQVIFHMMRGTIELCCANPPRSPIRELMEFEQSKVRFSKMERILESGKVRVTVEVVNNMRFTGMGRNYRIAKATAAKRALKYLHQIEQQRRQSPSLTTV",
  "sequence (G5EBF5 1-385 partner)": "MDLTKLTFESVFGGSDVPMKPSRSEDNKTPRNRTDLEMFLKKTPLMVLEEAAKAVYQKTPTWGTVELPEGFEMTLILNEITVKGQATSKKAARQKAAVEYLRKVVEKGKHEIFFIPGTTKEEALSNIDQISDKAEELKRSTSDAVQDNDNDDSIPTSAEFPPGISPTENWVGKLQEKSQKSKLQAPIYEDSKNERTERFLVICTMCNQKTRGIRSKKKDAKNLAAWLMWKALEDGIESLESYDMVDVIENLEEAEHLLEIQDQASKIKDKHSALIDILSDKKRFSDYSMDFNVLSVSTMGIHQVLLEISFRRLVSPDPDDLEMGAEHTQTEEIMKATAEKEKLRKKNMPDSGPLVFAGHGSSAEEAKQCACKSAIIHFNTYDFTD",
  "conditions": "5 mM ATP, BLT 42-bp dsRNA with deoxynucleotides",
  "data": [
    {"compound": "Nc1ncnc2c1ncn2[C@@H]1O[C@H](COP(=O)(O)OP(=O)(O)OP(=O)(O)O)[C@@H](O)[C@H]1O", "note": "[ATP]", "values": [
      {"measurement": "streptavidin-displacement (ATP-dependent translocation)", "result": "Wildtype C. elegans antiviral complex showed ATP-dependent streptavidin displacement on this substrate"}
    ]}
  ]
}
